{"source": "patent US7947435B2", "about": "“Neuronal regeneration material screening method by ex vivo model” (Seoul National University Industry Foundation, priority 2007, dated 2011)", "key": {"spinal cord slices [1]": {"tested_on": "spinal cord slices", "assay": "Immunofluorescent staining of lysolecithin-demyelinated spinal cord slices", "type": "cell-based, Sprague-Dawley rats", "settings": "spinal cord slices treated with 0.5 mg/ml lysolecithin for 17 hours, compared with the control; FIG. 1", "from_the_text": "(§1) <1-2> Preparation of Spinal Cord Tissue Slices Sprague-Dawley rats at 16 days old were anesthetized and the spinal cord was extracted. The spinal cord was put into ice-cold HBSS (Hanks balanced salt solution). Thoracic and lumbar spinal cords were cult into 400 μm in thickness by using a tissue chopper (McIlwain tissue chopper, The Mickle Laboratory Engineering Co. LTD, England). Several spinal cord slices were loaded on 0.4 μm filter (Millicell-CM filters, Millipore, USA) placed on a 6 well plate. The spinal cord slices were cultured in 1 ml of 25% horse serum (Invitrogen, USA) containing 50% MEM (Invitrogen, USA) supplemented with Earl's salts, 25% HBSS (Invitrogen, USA), 20 mM HEPES (Sigma, USA) and 6 mg/ml of D-glucose (Duchefa, Netherlands). The culture conditions were 5% CO2, 37° C. and the medium was replaced with a fresh medium twice a week. <1-3> Demyelination by Lysolecithin\n(§2) The spinal cord slices were cultured in vitro (DIV, days in vitro) for 7 days. After treating 0.5 mg/ml of lysolecithin, the slices were cultured at 37° C. for 17 hours to induce demyelination of axons (Birgbauer et al., J Neurosci Res, 78, 157-166, 2004). After inducing demyelination, the medium containing lysolecithin was replaced with 1 ml of fresh medium. […]"}, "spinal cord slices [2]": {"tested_on": "spinal cord slices", "assay": "Histological analysis of spinal cord tissue slices (Luxol fast blue, H&E)", "type": "cell-based, Sprague-Dawley rats", "settings": "spinal cord slices treated with 0.5 mg/ml lysolecithin for 17 hours, compared with the control; FIG. 1", "from_the_text": "as §1, §2"}}, "data": [{"substance": "lysolecithin", "values": [{"measurement": "MBP expression", "setting": "spinal cord slices [1]", "value": "decreased"}, {"measurement": "demyelination (myelin, Luxol fast blue staining)", "setting": "spinal cord slices [2]", "value": "serious demyelination was observed"}]}]}
